This note sets out measurements from US20190255048A1, “PYRIMIDINE COMPOUND OR SALT THEREOF IN APPLICATION FOR MANUFACTURING PHARMACEUTICAL PRODUCT FOR PREVENTING AND/OR TREATING FLT3-RELATED DISEASE OR DISORDER” (SHENZHEN HAIBIN PHARMACEUTICAL CO., LTD, priority 2016, published 2019).

What is called IC50 is the concentration that gives 50% inhibition. Low readings indicate inhibition by little substance, high ones a need for much substance.

Assay [1] concerns human acute monocytic leukemia cell strain MV4-11 (expressing FLT3/ITD mutant gene). Kind of assay: Effects on proliferation of tumor cells (Cell Titer-Glo), MV4-11. The note with it: MV4-11, incubated for 72 hours. Format: cell-based. From the text: (§1) This example tested the effects of the compounds of the present invention (the compound shown in Formula (I), hydrochloride salt, phosphate, mesylate, lactate, acetate, sulphate, and hydrobromide thereof prepared in EXAMPLES 1-8 respectively) on proliferation of tumor cells, and further evaluated the inhibitory effects of the compounds on proliferation of tumor cells and selectivity of the compounds in inhibiting proliferation of tumor cells.
(1) human acute monocytic leukemia cell strain MV4-11 (expressing FLT3/ITD mutant gene);
(§2) The compounds at different concentration (0.000508 μM, 0.00152 μM, 0.00457 μM, 0.0137 μM, 0.0411 μM, 0.123 μM, 0.370 μM, 1.11 μM, 3.33 μM, 10 μM in DMSO) were added to the above-mentioned cells respectively, incubated for 72 hours, Cell Titer-Glo (Promega, United States of America) Chemiluminescence Kit was used to quantify ATP in living cells to detect the number of living cells, the results were shown as Table 3
(ATP-based viability assays read luminescence as a measure of living cells.)

In assay [2] the test system is human acute myeloid leukemia cell strain MOLM-13 (expressing FLT3/ITD mutant gene and wild-type FLT3 gene). The assay is described as follows: Effects on proliferation of tumor cells (Cell Titer-Glo), MOLM-13. Format: cell-based. The note with it: MOLM-13, incubated for 72 hours.
Source text: as §1
(2) human acute myeloid leukemia cell strain MOLM-13 (expressing FLT3/ITD mutant gene and wild-type FLT3 gene);
as §2

For assay [3], the system named is human acute myeloid leukemia cell strain MOLM-14 (expressing FLT3/ITD mutant gene and wild-type FLT3 gene). Kind of assay: Effects on proliferation of tumor cells (Cell Titer-Glo), MOLM-14. The note with it: MOLM-14, incubated for 72 hours. The class given is cell-based.
Source text: as §1
(3) human acute myeloid leukemia cell strain MOLM-14 (expressing FLT3/ITD mutant gene and wild-type FLT3 gene);
as §2

The test system of assay [4] is mouse TEL-BaF3-FLT3/ITD (stably expressing FLT3/ITD mutant activated kinase). Kind of assay: Effects on proliferation of cells (Cell Titer-Glo), TEL-BaF3-FLT3/ITD. The class given is cell-based. As to conditions: incubated for 72 hours.
Source text: as §1
(6) mouse TEL-BaF3-FLT3/ITD (stably expressing FLT3/ITD mutant activated kinase);
as §2

Assay [5] deals with mouse TEL-BaF3-FLT3-D835Y (stably expressing FLT3D835Y mutant activated kinase). Kind of assay: Effects on proliferation of cells (Cell Titer-Glo), TEL-BaF3-FLT3-D835Y. The class given is cell-based. The note with it: incubated for 72 hours.
Source text: as §1
(7) mouse TEL-BaF3-FLT3-D835Y (stably expressing FLT3D835Y mutant activated kinase);
as §2

The subject of assay [6] is mouse TEL-FLT3-BaF3 (stably expressing FLT3 kinase). The assay is described as follows: Effects on proliferation of cells (Cell Titer-Glo), TEL-FLT3-BaF3. As to conditions: TEL-FLT3-BaF3, incubated for 72 hours. The class given is cell-based.
Source text: as §1
(8) mouse TEL-FLT3-BaF3 (stably expressing FLT3 kinase);
as §2

Assay [7] has as its system mouse BaF3-FLT3-ITD-D835Y (stably expressing FLT3/ITD D835Y mutant activated kinase). Kind of assay: Effects on proliferation of cells (Cell Titer-Glo), BaF3-FLT3-ITD-D835Y. The class given is cell-based. As to conditions: incubated for 72 hours.
Source text: as §1
(9) mouse BaF3-FLT3-ITD-D835Y (stably expressing FLT3/ITD D835Y mutant activated kinase);
as §2

The test system of assay [8] is mouse BaF3-FLT3-ITD-F691L (stably expressing FLT3/ITD F691L mutant activated kinase). Kind of assay: Effects on proliferation of cells (Cell Titer-Glo), BaF3-FLT3-ITD-F691L. The class given is cell-based. The note with it: incubated for 72 hours.
Source text: as §1
(10) mouse BaF3-FLT3-ITD-F691L (stably expressing FLT3/ITD F691L mutant activated kinase).
as §2

Assay [9] relates to subcutaneous xenograft tumor of human MV-4-11. Kind of assay: Therapeutic effects on subcutaneous xenograft tumor of human MV-4-11 in nude mice. The class given is in vivo, BALB/cA-nude mice. The note with it: MV-4-11 subcutaneous xenograft, 15 mg/kg intraperitoneal injection, 3 times a day for 21 days. The procedure: Preparation of test samples: all samples were prepared with 5% anhydrous ethanol, 5% Cremophor EL and 90% physiological saline.
Animals: BALB/cA-nude mice, 6-7 weeks, female ♀ purchased from Shanghai Lingchang Biotechnology Co., Ltd. Production license number was SC×K(Hu)2013-0018; animal certification number was 2013001810589.
Feeding environment: SPF Level.
Experiment steps: human acute myeloid leukemia cells MV-4-11 were inoculated subcutaneously in nude mice, after the tumor grows to 80-150 mm^3, animals were randomly divided into groups with 6 mice each group. The dosage was 15 mg/kg, the drugs were administrated by intraperitoneal injection, 3 times a day for 21 days. The volume of tumor was measured, the weight of mouse was weighed and the data were recorded.
The formula for calculating the volume of tumor (V) was: […]
Wherein a and b represented length and width respectively.
T/C (%)=(T−T0)/(C−C0)×100
Wherein T and C were the volume of tumor when the experiment was completed; T0 and C0 were the volume of tumor when the experiment was started.
The inhibited rate of tumor was calculated, the results were shown as Table 4.

Consider `Nc1sc(-c2c(F)cccc2F)nc1C(=O)Nc1cncnc1OCC1CCNCC1` [Compound of Formula (I), 5-amino-2-(2,6-difluorophenyl)-N-(4-(piperidine-4-methoxy)pyrimidine-5-) thiazole-4-formamide], for which the IC50 in [1] (Homo sapiens) was found to be 0.51 µM; in assay [2] (Homo sapiens) it was 0.52 µM; in assay [3] (Homo sapiens), 0.27 µM; in [4] (Mus musculus), 0.11 µM; in assay [5] (Mus musculus) it was 0.32 µM; in assay [6] (Mus musculus) it was 0.12 µM. For the same molecule, the IC50 came to 0.61 µM in assay [7] (Mus musculus) and 0.93 µM in assay [8] (Mus musculus). Besides, the “Inhibited Rate of Tumor (%)” value in assay [9] amounted to 66%.

Consider `Cl.Nc1sc(-c2c(F)cccc2F)nc1C(=O)Nc1cncnc1OCC1CCNCC1` [Hydrochloride salt of compound of Formula (I)], for which the IC50 in [1] was determined as 0.13 µM; in assay [2] it was 0.12 µM; in [3], 0.08 µM; in assay [4] it was 0.02 µM; in assay [5], 0.21 µM; in [6] it was 0.03 µM. Besides, the figures for the IC50 in assay [7] and in assay [8] were 0.32 µM and 0.45 µM, respectively. Further, the “Inhibited Rate of Tumor (%)” value in assay [9] came to 86%.

As for `CC(=O)O.Nc1sc(-c2c(F)cccc2F)nc1C(=O)Nc1cncnc1OCC1CCNCC1` [Acetate of compound of Formula (I)], the IC50 was 0.41 µM in assay [1]; 0.43 µM in assay [2]; 0.12 µM in assay [3]; 0.02 µM in assay [4]; 0.32 µM in assay [5]; 0.03 µM in assay [6]. In addition, the IC50 was 0.53 µM in assay [7] and 0.94 µM in [8]. In addition, the “Inhibited Rate of Tumor (%)” value in [9] is on record as 77%.

In the case of `CC(O)C(=O)O.Nc1sc(-c2c(F)cccc2F)nc1C(=O)Nc1cncnc1OCC1CCNCC1` [Lactate of compound of Formula (I)], the IC50 in assay [1] is 0.34 µM; in assay [2], 0.28 µM; in assay [3] it was 0.31 µM; in assay [4], 0.04 µM; in assay [5], 0.13 µM; in [6] it was 0.06 µM. The IC50 in [7] was 0.34 µM; in [8] it was 0.64 µM. The “Inhibited Rate of Tumor (%)” value in assay [9] was 71%.

As for `Br.Nc1sc(-c2c(F)cccc2F)nc1C(=O)Nc1cncnc1OCC1CCNCC1` [Hydrobromide of compound of Formula (I)], the IC50 was found to be 0.42 µM in assay [1]; 0.51 µM in assay [2]; 0.13 µM in assay [3]; 0.02 µM in [4]; 0.31 µM in assay [5]; 0.16 µM in assay [6]. Further, the IC50 in assay [7] is 0.66 µM; in assay [8], 0.76 µM. For the same molecule, the “Inhibited Rate of Tumor (%)” value in [9] is recorded as 66%.

Consider `Nc1sc(-c2c(F)cccc2F)nc1C(=O)Nc1cncnc1OCC1CCNCC1.O=S(=O)(O)O` [Sulphate of compound of Formula (I)], for which the IC50 in [1] is 0.23 µM; in [2], 0.23 µM; in assay [3], 0.22 µM; in [4], 0.04 µM; in [5] it was 0.22 µM; in assay [6] it was 0.05 µM. In addition, the 50% inhibitory concentration (IC50) in [7] worked out at 0.23 µM; in assay [8], 0.56 µM. Further, in [9], the “Inhibited Rate of Tumor (%)” value was found to be 68%.

On to `CS(=O)(=O)O.Nc1sc(-c2c(F)cccc2F)nc1C(=O)Nc1cncnc1OCC1CCNCC1` [Mesylate of compound of Formula (I)], for which the IC50 in [1] stood at 0.43 µM; in [2], 0.45 µM; in assay [3] it was 0.13 µM; in assay [4], 0.02 µM; in assay [5] it was 0.31 µM; in assay [6], 0.05 µM. For the same molecule, the IC50 in assay [7] stood at 0.55 µM; in [8], 0.77 µM. Also, the “Inhibited Rate of Tumor (%)” value in [9] is reported as 74%.
